The values below come from patent US12583858B2 (Genentech, Inc., priority 2015, dated 2026).

The structures appear in SMILES notation. Some results are limits rather than exact numbers.

In the experiment the target is T1, TDO2 (Homo sapiens, UniProt P48775).
T1 construct: decreased levels of NFK in SW48 cells (high TDO expressing cells)
T1 sequence (P48775 whole entry): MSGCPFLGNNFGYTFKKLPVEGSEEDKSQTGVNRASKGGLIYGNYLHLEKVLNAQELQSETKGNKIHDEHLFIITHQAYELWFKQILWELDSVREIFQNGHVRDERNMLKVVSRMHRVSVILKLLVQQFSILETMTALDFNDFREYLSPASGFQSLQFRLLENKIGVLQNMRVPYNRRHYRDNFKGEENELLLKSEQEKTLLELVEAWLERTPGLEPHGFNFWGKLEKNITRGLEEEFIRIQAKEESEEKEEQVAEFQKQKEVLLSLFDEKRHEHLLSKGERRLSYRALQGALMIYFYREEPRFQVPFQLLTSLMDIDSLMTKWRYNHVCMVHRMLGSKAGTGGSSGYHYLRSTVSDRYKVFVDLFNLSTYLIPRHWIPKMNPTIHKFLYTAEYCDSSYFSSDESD
Kind of experiment: TDO2 cell assay (NFK GreenScreen, SW48 cells). Type of experiment: cell-based. The note with it: SW48 cells (high TDO expressing), 200 uM tryptophan, 24 hours; Table 3; read-out: TDO2 Cell Fluor EC50.
Usually EC50 stands for the midpoint of the concentration-response curve. Regarding `OCC(O)C1c2ccccc2-c2cncn21` (single isomer, unassigned) [Example 49b, 1-(5H-imidazo[5,1-a]isoindol-5-yl)ethane-1,2-diol], the EC50 turned out to be 19.6 µM.
Then `O[C@@H]1c2ccccc2CC[C@H]1[C@@H]1c2ccccc2-c2cncn21` (single isomer, unassigned) [Example 102h], with 8.4 µM; and `OC1CCC(F)(F)CC1C1c2ccccc2-c2cncn21` (single isomer, unassigned) [Example 18g, 4,4-difluoro-2-(5H-imidazo[5,1-a]isoindol-5-yl)cyclohexan-1-ol], with 0.11 µM; and `CS(=O)(=O)N1CCC(C2c3ccccc3-c3cncn32)C(O)C1` (single isomer, unassigned) [Example 79a], with 8.1 µM.
Then `Nc1cc2n(n1)CC[C@@H]([C@H]1c3ccccc3-c3cncn31)[C@@H]2O` [Example 161b, (4S,5S)-2-amino-5-((S)-5H-imidazo[5,1-a]isoindol-5-yl)-4,5,6,7-tetrahydropyrazolo[1,5-a]pyridin-4-ol], with 0.7 µM.
Then `CC1(C)OCC(C2c3ccccc3-c3cncn32)C1O` (single isomer, unassigned) [Example 85g], with 0.14 µM; and `O[C@@H]1COCC[C@H]1[C@H]1c2c(F)cccc2-c2cncn21` [Example 120a, (3S,4S)-4-((S)-6-fluoro-5H-imidazo[5,1-a]isoindol-5-yl)tetrahydro-2H-pyran-3-ol], with greater than 25 µM.
`N#Cc1cnc2c(c1)CCC(C1c3ccccc3-c3cncn31)C2O` (single isomer, unassigned) [Example 107d]: the EC50 stood at 2.4 µM.
Take `OC1CCOCC1C1c2c(F)cccc2-c2cncn21` (single isomer, unassigned) [Example 73b]: the EC50 stood at 2.2 µM.
Then `CC(C)(C)OC(=O)N1CCC(C2c3ccccc3-c3cncn32)C(O)C1` (single isomer, unassigned) [Example 10c, tert-butyl 3-hydroxy-4-(5H-imidazo[5,1-a]isoindol-5-yl)piperidine-1-carboxylate], with 19 µM; and `OC1CC2(COC2)C1C1c2ccccc2-c2cncn21` (single isomer, unassigned) [Example 87e], with 14 µM; and `O[C@@H]1c2c(Cl)cnn2CC[C@@H]1[C@@H]1c2ccccc2-c2cncn21` [Example 160a, (4S,5R)-3-chloro-5-((R)-5H-imidazo[5,1-a]isoindol-5-yl)-4,5,6,7-tetrahydropyrazolo[1,5-a]pyridin-4-ol], with greater than 25 µM.
Then `Nc1ccc2c(n1)CCC(C1c3ccccc3-c3cncn31)C2O` (single isomer, unassigned) [Example 121d], with 17 µM; and `NC(=O)c1ccc2c(c1)C(O)C(C1c3ccccc3-c3cncn31)CC2` (single isomer, unassigned) [Example 122c], with 23 µM; and `OC1(C2c3ccccc3-c3cncn32)CCC1` (single isomer, unassigned) [Example 47a], with 0.35 µM.
Then `OC1c2nccn2CCC1C1c2ccccc2-c2cncn21` (single isomer, unassigned) [Example 88f], with 5.8 µM; and `Nc1ccc2c(n1)CCC(C1c3ccccc3-c3cncn31)C2O` (single isomer, unassigned) [Example 121f], with 24 µM.
For `CS(=O)(=O)N1CCC2(CCC(C3c4ccccc4-c4cncn43)C2O)CC1` (single isomer, unassigned) [Example 180a], the EC50 amounted to 0.37 µM.
Then `Cc1cnn2c1C(O)C(C1c3ccccc3-c3cncn31)CC2` (single isomer, unassigned) [Example 159a], with 0.27 µM; and `Nc1cc2n(n1)CCC(C1c3ccccc3-c3cncn31)C2O` [Example 161f, (4R,5S)-2-amino-5-((R)-5H-imidazo[5,1-a]isoindol-5-yl)-4,5,6,7-tetrahydropyrazolo[1,5-a]pyridin-4-ol], with greater than 25 µM; and `NC(=O)c1ccc2c(n1)CCC(C1c3ccccc3-c3cncn31)C2O` (single isomer, unassigned) [Example 104h], with 20 µM.
Then `O[C@H]1c2cncn2CC[C@@H]1[C@@H]1c2ccccc2-c2cncn21` [Example 07g, (7R,8R)-7-((R)-5H-imidazo[5,1-a]isoindol-5-yl)-5,6,7,8-tetrahydroimidazo[1,5-a]pyridin-8-ol], with greater than 25 µM.
Then `OC1COCCC1C1c2c(Cl)cccc2-c2cncn21` (single isomer, unassigned) [Example 69-1c], with greater than 25 µM; and `OC1c2cncnc2CCC1C1c2ccccc2-c2cncn21` (single isomer, unassigned) [Example 94b], with 3.1 µM.
Take `NS(=O)(=O)N1CC(O)C(C2c3ccccc3-c3cncn32)C1` (single isomer, unassigned) [Example 28d]: the EC50 is greater than 25 µM.
For the molecule `Nc1cc2n(n1)CCC(C1c3ccccc3-c3cncn31)C2O` (single isomer, unassigned) [Example 161e], the EC50 is greater than 25 µM.
Then `OC1c2ccnn2CCCC1C1c2ccccc2-c2cncn21` (single isomer, unassigned) [Example 133d], with greater than 25 µM; and `OC1CC2(CCC2)C1C1c2ccccc2-c2cncn21` (single isomer, unassigned) [Example 67c], with 1.1 µM.
On to `CC1(C)OCC(C2c3ccccc3-c3cncn32)C1O` (single isomer, unassigned) [Example 85f], for which the EC50 was greater than 25 µM.
Consider `OC1c2cncnc2CCC1C1c2ccccc2-c2cncn21` (single isomer, unassigned) [Example 94d], for which the EC50 amounted to 0.13 µM.
Then `N#CCN1CCC(O)C(C2c3ccccc3-c3cncn32)C1` (single isomer, unassigned) [Example 14c], with 20 µM; and `O[C@@H](C1CCOCC1)[C@@H]1c2ccccc2-c2cncn21` (single isomer, unassigned) [Example 138c], with greater than 25 µM; and `OC1CCOCC1C1c2c(F)cccc2-c2cncn21` (single isomer, unassigned) [Example 73c], with 0.34 µM.
Then `OC1c2cc(CF)nn2CCC1C1c2ccccc2-c2cncn21` (single isomer, unassigned) [Example 95b], with 0.24 µM.
Then `O=S(=O)(C1CC1)N1CC[C@@H]([C@@H]2c3ccccc3-c3cncn32)[C@H](O)C1` (single isomer, unassigned) [Example 81a], with 5.3 µM; and `OC1CCCC1C1c2ccccc2-c2cncn21` (single isomer, unassigned) [Example 02g], with 0.34 µM; and `CC1(C)CCCCC1(O)C1c2ccccc2-c2cncn21` (single isomer, unassigned) [Example 164a], with 0.04 µM.
`OC1CCCOCC1C1c2ccccc2-c2cncn21` (single isomer, unassigned) [Example 86e]: the EC50 was greater than 25 µM.
Then `NS(=O)(=O)N1CCC2(CCC(C3c4ccccc4-c4cncn43)C2O)CC1` (single isomer, unassigned) [Example 182b], with 0.54 µM; and `CC1(C)CCC(C2c3ccccc3-c3cncn32)C1O` (single isomer, unassigned) [Example 23b], with 0.085 µM.
Then `CCS(=O)(=O)N1CC(O)C(C2c3ccccc3-c3cncn32)C1` (single isomer, unassigned) [Example 40b], with 16 µM.
Then `CC1(O)CCC1C1c2ccccc2-c2cncn21` (single isomer, unassigned) [Example 35b], with 0.45 µM; and `OC1(C2c3ccccc3-c3cncn32)CCCc2ccncc21` (single isomer, unassigned) [Example 141a], with 17 µM.
In the case of `CC(C)(C(N)=O)C(O)C1c2ccccc2-c2cncn21` (single isomer, unassigned) [Example 155b], the EC50 was greater than 25 µM.
With `OC1COCC1C1c2ccccc2-c2cncn21` (single isomer, unassigned) [Example 26d], the EC50 is greater than 25 µM.
Then `O[C@@H]1CN(CC(F)(F)F)CC[C@H]1[C@H]1c2ccccc2-c2cncn21` [Example 82b, (3S,4S)-4-((S)-5H-imidazo[5,1-a]isoindol-5-yl)-1-(2,2,2-trifluoroethyl)piperidin-3-ol], with 0.33 µM; and `N#CCN1CCC(O)C(C2c3ccccc3-c3cncn32)C1` (single isomer, unassigned) [Example 58c], with 20 µM; and `CC1(C)CCCC(C2c3ccccc3-c3cncn32)C1O` (single isomer, unassigned) [Example 24a], with 0.057 µM.
Then `OC(C1c2ccccc2-c2cncn21)C1(F)CC1` (single isomer, unassigned) [Example 154d], with 13 µM.
Then `CC1(C)OC(C)(C)C(C2c3ccccc3-c3cncn32)C1O` (single isomer, unassigned) [Example 84c], with 13 µM.
As for `Nc1ccc2c(n1)CCC(C1c3ccccc3-c3cncn31)C2O` (single isomer, unassigned) [Example 121g], the EC50 was greater than 25 µM.
Turning to `CC1(C)CCCC(C)(C2c3ccccc3-c3cncn32)C1O` (single isomer, unassigned) [Example 90d], the EC50 came to 9.4 µM.
Then `NC(=O)c1ccc2c(n1)CCC(C1c3ccccc3-c3cncn31)C2O` (single isomer, unassigned) [Example 104g], with 0.33 µM; and `CN1CC[C@@H]([C@H]2c3ccccc3-c3cncn32)[C@H](O)C1` [Example 83b, (3S,4S)-4-((S)-5H-imidazo[5,1-a]isoindol-5-yl)-1-methylpiperidin-3-ol], with 1.4 µM.
Then `OC1CC2(COC2)C1C1c2ccccc2-c2cncn21` (single isomer, unassigned) [Example 87a], with 18 µM; and `CCS(=O)(=O)N1CCC2(CCC(C3c4ccccc4-c4cncn43)C2O)CC1` (single isomer, unassigned) [Example 76e], with 0.25 µM.
Then `O[C@H]1CN(CC(F)(F)F)CC[C@@H]1[C@H]1c2ccccc2-c2cncn21` [Example 82a, (3R,4R)-4-((S)-5H-imidazo[5,1-a]isoindol-5-yl)-1-(2,2,2-trifluoroethyl)piperidin-3-ol], with 4.4 µM.
